Positions of bridges follow the written chain, without caps; N, C: chain ends. Non-standard residues stand in square brackets, D forms with d. Residues, ends and D or L forms follow the SMILES beside them. *: point of attachment. X1 = CC[C@H](C)CCCCC(=O)*; Dab = NCC[C@H](N)C(=O)O
Columns and labels:
[1] = Stability of PB in plasma QC samples (short-term, freeze-thaw, long-term); type: in vitro ADME, human; settings: for Stability of the sample (in words): human plasma sample
Method: Blank plasma (190 μL) and 10 μL working solution were mixed to prepare calibration curves of 8000, 6000, 5000, 2400, 1200, 600, 300, and 100 ng/ml for PB1/PB1-I, and 948.5, 711.4, 592.8, 284.6, 142.3, 71.1, 35.6, and 11.9 ng/mL for PB2/PB3. Similar to the QC standards, for PB1/PB1-I, the low QC (QCL), medium QC 1 (QCM1), medium QC 2 (QCM2), and high QC (QCH) were 200, 1000, 4000, and 7000 ng/ml, respectively. For PB2/PB3, QC standards were 23.7, 118.6, 474.3, and 830.0 ng/ml. First, a 100 μL calibration sample or QC sample was removed; 10 μL IS solution, 200 μL ACN with 0.1% FA (v/v), and 0.2% TFA (v/v/v) were added successively. The samples were vortexed for 2 min to make precipate the protein fully, then centrifugated at 18800 g at 4 ℃ for 15 min. About 200 μL of the supernatant was sucked and transferred into 96-well plates for analysis.
(§1) Volume of 200 μL ACN with 0.2% TFA and 0.1% FA was added to a 100 μL plasma sample containing 10 μL IS solution, vortexed for 2 min, and centrifugated at 18800 g at 4°C for 15 min. The supernatant was then transferred to a 96-well plate for analysis.
(§2) QC samples (QCL, QCM1, QCM2, and QCH) were used to investigate the stability of the stock solutions, working solutions, and samples. Each QC was set with three parallels. The stability of plasma samples stored at room temperature (25°C) for 4 h, at 4°C in a refrigerator for 24 h, at −20°C for 37 days, and at −80°C for 97 days was investigated. The freeze-thaw stability of −20°C and −80°C freeze-thaw cycles at three times each was investigated. The stability of the stock and working solutions stored at −80°C for 97 days was investigated. The accuracy of the quality control sample should be within ±15% of the nominal concentration; the precision should be within 15%.

[2] = Stability of working and stock solutions; type: physicochemical
Method: Standard and IS stock solutions were prepared in Milli-Q water containing 1% FA (v/v) at 1 mg/mL (with all substances) and subpacked in EP tubes. Working solutions were diluted from the stock solution. The concentrations of PB1 in the PB1-I's working solution were 160, 120, 100, 48, 24, 12, 6, and 2 μg/mL. The quality control (QC) working solutions were 140, 80, 20, and 4 μg/mL. The IS solution, polymyxin E2, was diluted in 1% FA water to 7.5 μg/mL. All solutions were stored at −80°C.
as §2

[3] = Stability of extracted supernatant in the autosampler; type: physicochemical; settings: extracted supernatant in automatic sampler, 24 h
Method: The LC-MS/MS system consisted of an Agilent 1260 HPLC system equipped with a cooled autosampler (4°C) and an Agilent 6460 electrospray ionization-triple quadrupole mass spectrometer (Agilent Technologies, USA). The chromatographic column was BEH C18 (Waters, 2.1 × 50 mm, 1.7 μm) (Waters Corporation, USA). Ultrapure water was prepared using the Milli-Q Direct 8 (E. Merck, Darmstadt, Germany) water purification system. A Heraeus Multifuge X1R (Thermo Fisher Scientific, USA) high-speed refrigerated centrifuge was used for the centrifugation. SHIMADZU-AUW120D (Shimadzu Corporation, Japan) was used for the weighting.
as §1
as §2, with “The stability of the stock and working solutions stored at −80°C for 97 days was investigated. The accuracy of the quality control sample should be within ±15% of the nominal concentration; the precision should be within 15%.” left out

CC[C@H](C)CCCCC(=O)N[C@@H](CCN)C(=O)N[C@H](C(=O)N[C@@H](CCN)C(=O)N[C@H]1CCNC(=O)[C@H]([C@@H](C)O)NC(=O)[C@H](CCN)NC(=O)[C@H](CCN)NC(=O)[C@H](CC(C)C)NC(=O)[C@@H](Cc2ccccc2)NC(=O)[C@H](CCN)NC1=O)[C@@H](C)O [PB, Polymyxin B] (X1-[Dab]T[Dab][Dab][Dab][dF]L[Dab][Dab]T; lactam 4-C)
stable: Stability of the sample (in words) ([1]; 4°C, 24 h) | Stability of the sample (in words) ([1]; room temperature, 4 h) | Stability of the sample (in words) ([1]; −20°C, three freeze-thaw cycles) | Stability of the sample (in words) ([1]; −80°C, three freeze-thaw cycles) | Stability of the samples (in words) ([1]; human plasma samples stored at −20°C for 37 days) | Stability of the samples (in words) ([1]; human plasma samples stored at −80°C for 97 days) | Stability of the stock solution (in words) ([2]; stock solution at −80°C for 97 days) | Stability of the working solution (in words) ([2]; working solution at −80°C for 97 days) | Stability of the working solution (in words) ([2]; working solution stored at −20°C for 18 days) | Stability of the extracted supernatant (in words) [3]

From publication PMC10104742, “The Determination of Polymyxin B in Critically Ill Patients by the HPLC-MS/MS Method” (International Journal of Analytical Chemistry, 2023)
